The target of experiment [1] is MST1 (Homo sapiens (Human), UniProt Q13043). As to the kind of experiment: In vitro enzyme activity test (ADP-GLO). Type of experiment: biochemical. As to the method: The IC50 values of the compounds against MST1 were determined. The protein kinase MST1 and the substrate were obtained from commercial sources.
5.4 μL of protein kinase MST1 diluted to a certain concentration (final concentration was 2.5 ng/μL) and 1 μL of serially diluted drug compounds and control compound XMU-MP-1 were taken to react at room temperature for 10 minutes (final drug concentrations were 10 μM, 1 μM, 0.3 μM, 0.1 μM, 0.03 μM, 0.01 μM, 0.003 μM, 0.001 μM, respectively).
6 μL of a mixture of ATP (with a final reaction concentration of 50 μM) and substrate was added to the above reaction tube to react at 37° C. for 1 hour. The reaction buffer was 40 mM Tris, 7.5; 20 mM MgCl2; 0.1 mg/ml BSA; 50 μM DTT.
5 μL of the kinase mixture after the reaction was taken to a 384-well plate, and 5 μL of ADP-GLO™ reagent was added thereto. After reaction at room temperature for 40 minutes, the kinase reaction was terminated and the remaining ATP was consumed.
10 μL of a kinase detection reagent was added to convert ADP into ATP, and a coupled luciferase/luciferin reaction was utilized to detect the newly synthesized ATP. Envision was used to read and plot the data, and calculate the IC50 value.

The subject of experiment [2] is MIN-6 cells. As to the kind of experiment: Proliferation of MIN-6 cells (cell counter). The note with it: 0.3-3 μM, 72 hours, as the drug concentration increases. The protocol: (§1) The effects of compound 1 and the control compound XMU-MP-1 on MST1 signaling pathway such as autophosphorylation of MST1, apoptosis signaling pathway such as cleavage of four proteins Caspase9/7/3 and PARP, expression of BIM, BAX, BCL-2, BCL-XL protein, proliferation-related signaling pathway such as autophosphorylation of AKT and ERK, and phosphorylation and protein expression of insulin secretion transcription factor PDX1 were tested in mouse pancreatic β-cells, MIN-6 cells (Hunan Fenghuishengwu technology Co., Ltd.). Compound 1 of different concentrations (0 μM, 0.3 μM, 1 μM, 3 μM in DMSO) and XMU-MP-1 of 1 μM (in DMSO) were used to treat the cell line for 72 hours in a medium with a glucose content of 33.3 mM, respectively. One of the control DMSO group involved 5.5 mM glucose and the other one involved 33.3 mM glucose. The samples were collected.
JIMBIO cell counter (EXCEL HERO TECHNOLOGY LIMITED) was used to detect the effect on the proliferation of MIN-6 cells after 72 hours of the administration.

Experiment [3] relates to autophosphorylation of AKT and ERK. The experiment can be described thus: Effect on proliferation-related signaling pathway of pancreatic β cells. Type of experiment: cell-based, mouse. The note with it: MIN-6 cells, 72 hours, 33.3 mM glucose. The protocol: as §1
In experiment [4] the test system is autophosphorylation of MST1. As to the kind of experiment: Effect on MST1 signaling pathway of pancreatic β cells. The conditions noted are these: MIN-6 cells, 1 μM, 72 hours, 33.3 mM glucose. Type of experiment: cell-based, mouse. As to the method:
as §1

For experiment [5], the system named is Caspase9/7/3, PARP, BIM, BCL-XL. The experiment can be described thus: Effect on apoptosis signaling pathway of pancreatic β cells. Type of experiment: cell-based, mouse. The conditions noted are these: MIN-6 cells, 1 μM, 72 hours, 33.3 mM glucose. As to the method:
as §1

In experiment [6] the test system is PDX1. The experiment can be described thus: Effect on insulin secretion transcription factor PDX1 in pancreatic β cells. The note with it: MIN-6 cells, 72 hours, 33.3 mM glucose. Type of experiment: cell-based, mouse. The protocol: as §1
Experiment [7] concerns C57BL/6 mice. The experiment can be described thus: Liver injury repair experiment (paracetamol/APAP-induced). Type of experiment: in vivo. The protocol: C57BL/6 mice, male, 20 g, were maintained in a SPF animal room. Thirty C57BL/6 mice were fasted for 12 hours overnight, and 5 mice of which were intraperitoneally injected with normal saline to act as a normal control group, and the other 25 mice were intraperitoneally injected with paracetamol (APAP) (purchased from Sigma)-600 mg/kg, and randomly divided into 5 groups after 30 minutes, wherein the 5 groups include vehicle (5% DMSO in water), compound 1-1-po, compound 1-2-po, compound 1-4-po, XMU-MP-1-ip groups. Mice in the vehicle group were administered intragastrically with vehicle control; mice in the compound 1-1-po, compound 1-2-po, compound 1-4-po groups were administered intragastrically with compound 1 at 1 mg/kg, 2 mg/kg or 4 mg/kg, respectively; mice in the XMU-MP-1-ip group were intraperitoneally administered with the control compound XMU-MP-1 at 1 mg/kg. After the administration, the body weight of the mice was monitored and the survival status of the mice was observed.

Where [8] appears, read: ATP 50 μM, 37° C. 1 hour, read-out: MST1 (IC50/μM).
[9] abbreviates: read-out: MST1 (IC50/μM), ATP 50 μM, 37° C. 1 hour.

Like-named read-outs stand apart in the source and are kept apart here.

MST1, sequence (Q13043 whole entry): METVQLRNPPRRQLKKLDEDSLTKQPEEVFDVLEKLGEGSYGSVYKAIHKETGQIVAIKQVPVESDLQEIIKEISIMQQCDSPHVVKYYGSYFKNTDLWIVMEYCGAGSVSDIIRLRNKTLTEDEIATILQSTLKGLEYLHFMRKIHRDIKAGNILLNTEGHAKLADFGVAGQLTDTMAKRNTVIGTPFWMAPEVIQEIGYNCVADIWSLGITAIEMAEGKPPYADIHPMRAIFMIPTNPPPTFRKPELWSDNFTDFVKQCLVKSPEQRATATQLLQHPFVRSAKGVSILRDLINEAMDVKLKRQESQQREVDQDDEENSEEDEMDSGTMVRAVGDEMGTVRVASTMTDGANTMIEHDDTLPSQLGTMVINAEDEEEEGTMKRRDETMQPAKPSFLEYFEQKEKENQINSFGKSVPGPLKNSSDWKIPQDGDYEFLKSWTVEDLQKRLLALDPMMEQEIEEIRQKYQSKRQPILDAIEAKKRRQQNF

For the compound `CN1C(=O)C2(CC2)N(C)c2nc(Nc3ccc(S(N)(=O)=O)cc3)ncc21` [Compound 7, 4-((5′,8′-dimethyl-6′-oxo-5′,8′-dihydro-6′H-spiro[cyclopropan-1,7′-pteridin]-2′-yl)amino)benzsulfamide], the IC50 in experiment [1] (setting [8]) is 0.103 µM.
On the same count and under the same terms, as for `CN1C(=O)C(c2cccs2)N(C)c2nc(Nc3ccc(S(N)(=O)=O)cc3)ncc21` (centres unmarked) [Compound 20, 4-((5,8-dimethyl-6-oxo-7-(thien-2-yl)-5,6,7,8-tetrahydropteridin-2-yl)amino)benzsulfamide], the figure is 0.0879 µM.
As for `CN1C(=O)[C@H](c2ccccc2)N(C)c2nc(Nc3ccc(S(N)(=O)=O)cc3)ncc21` [Compound 4, (S)-4-((5,8-dimethyl-6-oxo-7-phenyl-5,6,7,8-tetrahydropteridin-2-yl)amino)benzsulfamide], the IC50 in experiment [1] (setting [9]) was determined as 0.197 µM.
For `CN1C(=O)C2(CCCC2)N(C)c2nc(Nc3ccc(S(N)(=O)=O)cc3)ncc21` [Compound 14, 4-((5′,8′-dimethyl-6′-oxo-5′,8′-dihydro-6′H-spiro[cyclopentan-1,7′-pteridin]-2′-yl)amino)benzsulfamide], the IC50 in experiment [1] (setting [8]) came to 0.129 µM.
Still for that read-out and setting: as for `CN1C(=O)C2(CCC2)N(C)c2nc(Nc3ccc(S(N)(=O)=O)cc3)ncc21` [Compound 15, 4-((5′,8′-dimethyl-6′-oxo-5′,8′-dihydro-6′H-spiro[cyclobutan-1,7′-pteridin]-2′-yl)amino)benzsulfamide], the figure is 0.141 µM; as for `CCCC1C(=O)N(C)c2cnc(Nc3ccc(S(N)(=O)=O)cc3)nc2N1C` (centres unmarked) [Compound 17, 4-((5,8-dimethyl-6-oxo-7-propyl-5,6,7,8-tetrahydropteridin-2-yl)amino)benzsulfamide], 0.206 µM.
Regarding `CN1C(=O)C(c2ccccc2)N(C)c2nc(Nc3ccc(S(=O)(=O)NC4CC4)cc3)ncc21` (centres unmarked) [Compound 6, N-cyclopropyl-4-((5,8-dimethyl-6-oxo-7-phenyl-5,6,7,8-tetrahydropteridin-2-yl)amino)benzsulfamide], the IC50 in experiment [1] (setting [9]) was found to be 0.143 µM.
Regarding `CN1C(=O)C(c2ccccc2C(F)(F)F)N(C)c2nc(Nc3ccc(S(N)(=O)=O)cc3)ncc21` (centres unmarked) [Compound 22, 4-((5,8-dimethyl-6-oxo-7-(2-(trifluoromethyl)phenyl)-5,6,7,8-tetrahydropteridin-2-yl)amino)benzsulfamide], the IC50 in experiment [1] (setting [8]) came to 0.0563 µM.
For `CN1C(=O)C(c2c(F)cccc2F)N(C)c2nc(Nc3ccc(S(=O)(=O)N(C)C4CC4)cc3)ncc21` (centres unmarked) [Compound 32, N-cyclopropyl-4-((7-(2,6-difluorophenyl)-5,8-dimethyl-6-oxo-5,6,7,8-tetrahydropteridin-2-yl)amino)-N-methylbenzsulfamide], in experiment [1] (setting [9]), the IC50 is 0.0316 µM.
Turning to `CN1C(=O)C(c2cccc(F)c2)N(C)c2nc(Nc3ccc(S(N)(=O)=O)cc3)ncc21` (centres unmarked) [Compound 11, 4-((7-(3-fluorophenyl)-5,8-dimethyl-6-oxo-5,6,7,8-tetrahydropteridin-2-yl)amino)benzsulfamide], in experiment [1] (setting [8]), the IC50 worked out at 0.134 µM.
Take `Cc1ccccc1C1C(=O)N(C)c2cnc(Nc3ccc(S(N)(=O)=O)cc3)nc2N1C` (centres unmarked) [Compound 25, 4-((5,8-dimethyl-6-oxo-7-(o-methylphenyl)-5,6,7,8-tetrahydropteridin-2-yl)amino)benzsulfamide]: the IC50 in experiment [1] (setting [9]) worked out at 0.0227 µM.
Regarding `CC(C)CC1C(=O)N(C)c2cnc(Nc3ccc(S(N)(=O)=O)cc3)nc2N1C` (centres unmarked) [Compound 16, 4-((7-isobutyl-5,8-dimethyl-6-oxo-5,6,7,8-tetrahydropteridin-2-yl)amino)benzsulfamide], in experiment [1] (setting [8]), the IC50 came to 0.0767 µM.
Still for that read-out and setting: as for `CN1C(=O)C(c2c(F)cccc2F)N(C)c2nc(Nc3ccc(S(=O)(=O)NCC4CC4)cc3)ncc21` (centres unmarked) [Compound 33, N-(cyclopropylmethyl)-4-((7-(2,6-difluorophenyl)-5,8-dimethyl-6-oxo-5,6,7,8-tetrahydropteridin-2-yl)amino)benzsulfamide], the figure is 0.0796 µM.
As to `CCNS(=O)(=O)c1ccc(Nc2ncc3c(n2)N(C)C(c2c(F)cccc2F)C(=O)N3C)cc1` (centres unmarked) [Compound 38, 4-((7-(2,6-difluorophenyl)-5,8-dimethyl-6-oxo-5,6,7,8-tetrahydropteridin-2-yl)amino)-N-ethylbenzsulfamide], in experiment [1] (setting [9]), the IC50 is 0.0516 µM.
Same read-out and setting: as for `CN1C(=O)[C@@H](c2ccccc2)N(C)c2nc(Nc3ccc(S(N)(=O)=O)cc3)ncc21` [Compound 10, (R)-4-((5,8-dimethyl-6-oxo-7-phenyl-5,6,7,8-tetrahydropteridin-2-yl)amino)benzsulfamide], the figure is 0.0987 µM.
Turning to `CN1C(=O)C(c2c(F)cccc2F)N(C)c2nc(Nc3ccc(S(N)(=O)=O)cc3)ncc21` (centres unmarked) [Compound 1, 4-((7-(2,6-difluorophenyl)-5,8-dimethyl-6-oxo-5,6,7,8-tetrahydropteridin-2-yl)amino)benzsulfamide], the IC50 in experiment [1] (setting [9]) was 0.023 µM. Further, in experiment [2], the cell proliferation entry is recorded as “can promote cell proliferation”. Further, in experiment [3], the AKT autophosphorylation result was “does not affect” and the ERK autophosphorylation entry was “can activate”. Besides, in experiment [4], the “autophosphorylation of MST1” value is “significantly inhibit”. For the same compound, in experiment [5], the “cleavage of the four proteins Caspase9/7/3 and PARP” value is “inhibit the cleavage”; the “expression of pro-apoptosis-related proteins such as BIM” value is given as “down-regulate”; the “expression of the anti-apoptotic protein BCL-XL” value is “promote the expression”. For the same compound, in experiment [6], the “expression of PDX1” value is reported as “promotes the expression of PDX1 to a certain extent” and the “phosphorylation of the transcription factor PDX1” value is recorded as “a certain inhibitory effect”. Also, the “survival rate of the mice” value in experiment [7] (1 mg/kg intragastrically after APAP 600 mg/kg ip) was 80%. In experiment [7] (2 mg/kg intragastrically after APAP 600 mg/kg ip), the “survival of the mice” value is listed as “all escaped from death”. The “survival of the mice” value in experiment [7] (4 mg/kg intragastrically after APAP 600 mg/kg ip) was “all escaped from death”. For the same compound, the weight of mice entry in experiment [7] (after APAP 600 mg/kg ip, compound 1 po 1-4 mg/kg, XMU-MP-1 ip 1 mg/kg) is reported as “can gradually recover”.
With `CN1C(=O)C(c2ccccc2F)N(C)c2nc(Nc3ccc(S(N)(=O)=O)cc3)ncc21` (centres unmarked) [Compound 21, 4-((7-(2-fluorophenyl)-5,8-dimethyl-6-oxo-5,6,7,8-tetrahydropteridin-2-yl)amino)benzsulfamide], the IC50 in experiment [1] (setting [8]) was 0.0753 µM.
As to `CN1C(=O)C(C2CC2)N(C)c2nc(Nc3ccc(S(N)(=O)=O)cc3)ncc21` (centres unmarked) [Compound 19, 4-((7-cyclopropyl-5,8-dimethyl-6-oxo-5,6,7,8-tetrahydropteridin-2-yl)amino)benzsulfamide], the IC50 in experiment [1] (setting [8]) turned out to be 0.137 µM.
As for `CN1C(=O)C(c2c(F)cccc2F)N(C)c2nc(Nc3ccc(S(=O)(=O)NC4CC4)cc3)ncc21` (centres unmarked) [Compound 27, N-cyclopropyl-4-((7-(2,6-difluorophenyl)-5,8-dimethyl-6-oxo-5,6,7,8-tetrahydropteridin-2-yl)amino)benzsulfamide], the IC50 in experiment [1] (setting [9]) turned out to be 0.113 µM.

The record behind these values is patent US12318398B2, “MST1 kinase inhibitor and use thereof” (priority 2018, dated 2025).
